For the data set, the system named is Alu cDNA in ARPE-19 cells. Briefly: Alu cDNA in ARPE-19 cells (Alu c-PCR, in situ hybridization). It counts as cell-based, human. As to conditions: heat shock or DICER1 AS, in situ hybridization. The protocol: Cell culture and transfection. Primary mouse and human RPE cells were isolated as previously described (Kerur et al., 2018). All cells were maintained at 37° C. in a 5% CO2 environment. Mouse RPE cells were cultured in DMEM supplemented with 20% FBS and penicillin/streptomycin antibiotics at standard concentrations; primary human RPE cells were maintained in DMEM supplemented with 10% FBS and antibiotics. The human RPE cell line ARPE19 was cultured as previously described (Kerur et al., 2018) and maintained in DMEM-F12 containing penicillin/streptomycin, Fungizone, and gentamicin. HEK293T cells were cultured in DMEM with 10% fetal bovine serum (FBS) with 100 U/ml penicillin/streptomycin and 2 mM L-glutamine. […]
In situ hybridization. […] Visualization of fluorescein-labelled probe was performed with the TSA™ plus fluorescence system or the TSA™ plus Cy5 system (PerkinElmer). The fluorescent or Cy5 signals were detected using a Leica SP-5 or MR Nikon confocal microscope system. […]

Consider one substance from US20210348164A1, “ENDOGENOUS CYTOPLASMIC ALU COMPLEMENTARY DNA IN AGE-RELATED MACULAR DEGENERATION” (University of Virginia Patent Foundation, priority 2018, published 2021).

In the case of “L1 siRNA: siRNA targeting L1; cholesterol-conjugated mouse L1 siRNA (SEQ ID NOs: 48 and 49) in vivo, human L1 siRNA sequences in human cells (chain 1 ACUAUUACUCUGAUACCTT; chain 2 UGUACUAAGGUCAAAUCTT; cholesterol conjugated, position not given here)”, the “Alu cDNA induction” value is “reduced Alu cDNA formation”.
